Data taken from patent publication US12286429B2, “5-oxo-1,2,3,5,8,8a-hexahydroindolizine-3-carboxamide derivatives useful as a factor XIa inhibitors” (Janssen Pharmaceutica NV, priority 2021, dated 2025).

Columns and labels:
Factor XIa = Factor XIa (Homo sapiens, UniProt P03951); test: Factor XIa inhibition assay utilizing a fluorophore-quencher pair peptide substrate (FLINT); type: biochemical; details: 11-point, 3-fold serial dilution, top 100 nM; 30 min preincubation; 15 μM 5Fam-KLTRAETV-K5Tamra substrate; kinetic reads over 30 min; read-out: FXIa Inhibition IC50
Sequence of Factor XIa (P03951 388-625 limits assumed): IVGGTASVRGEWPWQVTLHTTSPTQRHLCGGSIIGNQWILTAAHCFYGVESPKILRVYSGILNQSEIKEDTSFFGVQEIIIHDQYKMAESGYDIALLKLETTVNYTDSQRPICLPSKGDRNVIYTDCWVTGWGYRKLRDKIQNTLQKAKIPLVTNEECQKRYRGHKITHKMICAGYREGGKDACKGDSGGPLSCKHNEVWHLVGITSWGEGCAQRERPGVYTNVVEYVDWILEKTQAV
Sequence of Factor XIa (P03951 19-387 partner limits assumed): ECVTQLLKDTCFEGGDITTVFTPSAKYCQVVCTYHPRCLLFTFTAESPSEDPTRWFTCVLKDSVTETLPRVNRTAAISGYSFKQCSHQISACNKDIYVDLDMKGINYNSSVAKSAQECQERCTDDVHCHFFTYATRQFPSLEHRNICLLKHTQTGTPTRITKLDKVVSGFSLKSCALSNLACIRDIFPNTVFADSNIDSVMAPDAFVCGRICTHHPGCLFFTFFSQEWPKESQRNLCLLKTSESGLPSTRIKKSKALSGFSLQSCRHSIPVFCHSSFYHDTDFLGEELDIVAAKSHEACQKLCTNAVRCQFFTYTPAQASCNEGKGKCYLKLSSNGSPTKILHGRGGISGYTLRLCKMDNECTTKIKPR
Text: Biological Example 1: Factor XIa Inhibition Assay Utilizing a Fluorophore-Quencher Pair Peptide Substrate
A fluorescence intensity (FLINT) based assay was used to monitor inhibition of Factor XIa. The peptide substrate, 5Fam-KLTRAETV-K5Tamra (purchased from New England Peptide) was chosen based on the FXI sequence. Conversion of zymogen FXI to its activated form, FXIa, occurs by proteolytic cleavage by […] at two sites, Arg146 and Arg180. The custom peptide used in this assay was based on the Arg146 cleavage site of FXI. The peptide substrate was designed with a fluorophore-quencher pair, where the fluorescence is quenched until FXIa cleaves the 8-mer peptide after the Arg residue.
The Factor XIa FLINT assay was used with the following 5Fam-KLTRAETV-K5Tamra assay buffer: 50 mM Tris, pH 7.5, 100 mM NaCl, 5 mM CaCl2, 0.1 mg/mL BSA, 0.03% CHAPS. Assay buffer was prepared by mixing all ingredients fresh. 5Fam-KLTRAETV-K5Tamra peptide substrate was first prepared at 10 mM in 100% DMSO, then diluted to 3 mM in 100% DMSO. Assay buffer was then added directly to the 3 mM stock of substrate to prepare the 30 μM 2× working concentration (15 μM final concentration). The 2× Factor XIa stock solution was prepared by diluting 6.562 μM stock in 1× assay buffer for a […].
Test compound(s) were run in an 11-point, 3-fold serial dilution with a final top compound concentration of 100 nM. Final DMSO in assay was 2%. FXIa was preincubated with compound for 30-minutes and then substrate was added to initiate the reaction. The assay was run with kinetic (KIN) reads at 5 min intervals over 30 minutes. […] More specifically, the assay was run as follows: • 100 nL of 0.01 mM test compound was dispensed into black 384-well non-binding Greiner BioOne 784900 plate for 0.1 μM final concentration, • 5 μL of 1× assay buffer was dispensed to column 24 (low control) and 5 μL 2× Factor XIa solution was dispensed to columns 1-23 (column 23 high control); • the plate was centrifuged with a “cover” plate at 500 rpm for 1 min • the plate was pre-incubated for 30 minutes at room temperature with plate covered; • 5 μL of 2×5Fam-KLTRAETV-K5Tamra peptide substrate was dispensed into the entire plate, columns 1-24; • the plate was centrifuged with a “cover” plate at 500 rpm for 1 min; • the plate was read monitoring fluorescence intensity on the BMG PHERAStar at room temperature, using fluorescence module 485 nm/520 nm.
(§1) Percent inhibition (IC50) curves were generated per compound tested, and data was analyzed using a 4-parameter logistic fit using GeneData Screener. The relative fluorescence unit (RFU) values were normalized to percent inhibition using the following equation: % inhibition=((HC−LC)−(compound−LC)/(HC−LC))*100
where LC—low control=mean signal of no Factor XIa or 100% inhibition of Factor XIa; HC—high control=mean signal of Factor XIa+5Fam-KLTRAETV-K5Tamra peptide substrate with DMSO only.
(§2) An 11-point dose response curve for the test compound(s) was generated using GENDATA to determine IC50 value based on the following equation: Y=Bottom+(Top−Bottom)/(1+10^((log IC50−X)*HillSlope))
(§3) where Y is the % inhibition in the presence of X inhibitor concentration, Top=high control=mean signal of Factor XIa+5Fam-KLTRAETV-K5Tamra peptide substrate with DMSO only; Bottom=low control—mean signal of no Factor XIa or 100% inhibition of Factor XIa; HillSlope—Hill coefficient; and IC50=concentration of compound with 50% inhibition in relation to top/high control.

human plasma kallikrein = human plasma kallikrein (Homo sapiens, UniProt P03952); test: Kallikrein inhibition assay utilizing a quenched AMC peptide substrate (FLINT); type: biochemical; details: 11-point, 3-fold serial dilution, top 1 μM; 30 min preincubation; 2 nM kallikrein; 50 μM Z-Gly-Pro-Arg-AMC; kinetic reads over 30 min
Sequence of human plasma kallikrein (P03952 391-638 limits assumed): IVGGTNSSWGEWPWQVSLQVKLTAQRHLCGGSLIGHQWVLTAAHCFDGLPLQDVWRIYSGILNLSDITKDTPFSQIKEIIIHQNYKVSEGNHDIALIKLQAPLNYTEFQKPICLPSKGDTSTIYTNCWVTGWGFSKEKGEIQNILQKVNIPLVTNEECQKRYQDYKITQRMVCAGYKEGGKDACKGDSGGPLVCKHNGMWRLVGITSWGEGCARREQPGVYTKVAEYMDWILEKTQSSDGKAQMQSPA
Sequence of human plasma kallikrein (P03952 20-390 partner limits assumed): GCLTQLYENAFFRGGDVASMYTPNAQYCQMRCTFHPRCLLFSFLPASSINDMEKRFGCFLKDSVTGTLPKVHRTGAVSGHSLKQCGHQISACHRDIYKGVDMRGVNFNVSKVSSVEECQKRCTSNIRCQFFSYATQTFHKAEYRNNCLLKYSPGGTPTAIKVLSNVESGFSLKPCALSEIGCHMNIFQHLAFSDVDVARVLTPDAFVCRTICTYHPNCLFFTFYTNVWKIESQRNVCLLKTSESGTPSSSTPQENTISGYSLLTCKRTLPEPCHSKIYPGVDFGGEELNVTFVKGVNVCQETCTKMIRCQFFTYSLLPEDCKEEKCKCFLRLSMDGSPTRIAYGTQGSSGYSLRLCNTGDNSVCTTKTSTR
Method: Biological Example 2: Kallikrein Inhibition Assay Utilizing a Quenched AMC Peptide Substrate
A fluorescence intensity (FLINT) based assay was used to monitor inhibition of human plasma kallikrein. The peptide substrate, Z-Gly-Pro-Arg-AMC (Purchased from Bachem; Catalog #I-1150) was chosen based on its relatively low KM for kallikrein which enables running the assay at lower substrate concentrations to control background fluorescence. The kinetic parameters for this substrate were determined by fitting titration data to the Michaelis-Menten equation yielding a KM=40 μM, kcat=0.76 s^−1, and kcat/KM=18932 M^−1s^−1.
The Kallikrein FLINT assay was used with the following Z-Gly-Pro-Arg-AMC assay buffer: 50 mM Tris, pH 7.5, 100 mM NaCl, 5 mM CaCl2, 0.1 mg/mL BSA, 0.03% CHAPS. Assay buffer was prepared by mixing all ingredients fresh. 2× Z-Gly-Pro-Arg-AMC peptide substrate was prepared by diluting 10 mM stock into 1× assay buffer for a 100 μM working concentration (50 μM final concentration). The 2× kallikrein stock solution was prepared by diluting 14.76 μM stock in 1× assay buffer for a 4 nM working stock solution (2 nM final concentration).
Test compound(s) were run in an 11-point, 3-fold serial dilution with a final top compound concentration of 1 μM. Final DMSO in assay was 2%. Plasma kallikrein was pre-incubated for 30-minute with compound and then 50 μM substrate was added to initiate the reaction. The assay was run with kinetic (KIN) reads at 5 min intervals over 30 minutes. The time course was linear using 2 nM kallikrein greater than 30 minutes. More specifically, the assay was run as follows: • 100 nL of 0.1 mM test compound was dispensed into black 384-well non-binding Greiner BioOne 784900 plate for 1 μM final concentration; • 5 μL of 1× assay buffer was dispensed to columns 24 (low control) and 5 μL 2× human kallikrein enzyme solution was dispensed to columns 1-23 (column 23 high control); • the plate was centrifuged with a “cover” plate at 500 rpm for 1 min • the plate was pre-incubated for 30 minutes at room temperature with plate covered; • 5 μL of 2× Z-Gly-Pro-Arg-AMC peptide substrate was dispensed into the entire plate, columns 1-24; • the plate was centrifuged with a “cover” plate at 500 rpm for 1 min; • the plate was read monitoring fluorescence intensity on the BMG PHERAStar at room temperature, using fluorescence module 340 nm/440 nm.
as §1
where LC—low control=mean signal of […] 100% inhibition of human kallikrein enzyme; HC—high control=mean signal of […]+Z-Gly-Pro-Arg-AMC peptide substrate with DMSO only.
as §2
as §3, with “human kallikrein enzyme+Z-Gly-Pro-Arg-AMC” for “Factor XIa+5Fam-KLTRAETV-K5Tamra”, “human kallikrein enzyme” for “Factor XIa”, “human kallikrein enzyme;” for “Factor XIa;”

SMILES: CC(C)(O)c1nc2cc(NC(=O)[C@@H]3CCC4CC(c5c(-n6cnnn6)ccc(Cl)c5F)=CC(=O)N43)ccc2s1 (mixture of isomers) [compound 90]
- IC50 (Factor XIa): > 50 nM
- IC50 (human plasma kallikrein): 109 nM

SMILES: CC(O)c1nc2cc(NC(=O)[C@@H]3CCC4CC(c5c(-n6cnnn6)ccc(Cl)c5F)=CC(=O)N43)ccc2s1 (mixture of isomers) [compound 91]
- IC50 (Factor XIa): > 50 nM
- IC50 (human plasma kallikrein): 115 nM

SMILES: CC(O)c1nc2cc(NC(=O)[C@@H]3CCC4CC(c5c(-n6cnnn6)ccc(Cl)c5F)=CC(=O)N43)ccc2s1 (mixture of isomers) [compound 92]
- IC50 (Factor XIa): 33.5 nM
- IC50 (human plasma kallikrein): 50.4 nM

SMILES: CCOCCOc1ccc2cc(NC(=O)[C@@H]3CCC4CC(c5c(-n6cc(C(F)(F)F)nn6)ccc(Cl)c5F)=CC(=O)N43)ccc2n1 (mixture of isomers) [compound 107]
- IC50 (Factor XIa): > 50 nM
- IC50 (human plasma kallikrein): 190 nM

SMILES: CO[C@H]1C[C@@H](C(=O)Nc2ccc3nn(C)cc3c2)N2C(=O)C=C(c3c(-n4cnnn4)ccc(Cl)c3F)CC12 (mixture of isomers) [compound 110]
- IC50 (Factor XIa): > 100 nM

SMILES: COCCn1ncc2cc(NC(=O)[C@@H]3CCC4CC(c5c(-n6cnnn6)ccc(Cl)c5F)=CC(=O)N43)ccc21 (mixture of isomers) [ID No. 4, (3S)-7-(3-chloro-2-fluoro-6-(1H-tetrazol-1-yl)phenyl)-N-(1-(2-methoxyethyl)-1H-indazol-5-yl)-5-oxo-1,2,3,5,8,8a-hexahydroindolizine-3-carboxamide]
- IC50 (Factor XIa): 26.9 nM
- IC50 (human plasma kallikrein): 106 nM

SMILES: O=C(O)c1[nH]c2ccc(NC(=O)[C@@H]3CCC4CC(c5c(-n6cnnn6)ccc(Cl)c5F)=CC(=O)N43)cc2c1F (mixture of isomers) [ID No. 26, 5-[[(3S)-7-[3-Chloro-2-fluoro-6-(tetrazol-1-yl)phenyl]-5-oxo-2,3,8,8a-tetrahydro-1H-indolizine-3-carbonyl]amino]-3-fluoro-1H-indole-2-carboxylic acid]
- IC50 (Factor XIa): 3.2 nM
- IC50 (human plasma kallikrein): 60.4 nM

SMILES: CO[C@H]1C[C@@H](C(=O)Nc2ccc3n[nH]cc3c2)N2C(=O)C=C(c3c(-n4cnnn4)ccc(Cl)c3F)CC12 (mixture of isomers) [ID No. 27, (1S,3S)-7-[3-Chloro-2-fluoro-6-(tetrazol-1-yl)phenyl]-N-(2H-indazol-5-yl)-1-methoxy-5-oxo-2,3,8,8a-tetrahydro-1H-indolizine-3-carboxamide]
- IC50 (Factor XIa): 136 nM

SMILES: CO[C@H]1C[C@@H](C(=O)Nc2ccc3nccnc3c2)N2C(=O)C=C(c3c(-n4cnnn4)ccc(Cl)c3F)CC12 (mixture of isomers) [ID No. 28, (1S,3S)-7-[3-Chloro-2-fluoro-6-(tetrazol-1-yl)phenyl]-1-methoxy-5-oxo-N-quinoxalin-6-yl-2,3,8,8a-tetrahydro-1H-indolizine-3-carboxamide]
- IC50 (Factor XIa): ~189 nM
- IC50 (human plasma kallikrein): 431 nM

SMILES: CO[C@H]1C[C@@H](C(=O)Nc2ccc3ncccc3c2)N2C(=O)C=C(c3c(-n4cnnn4)ccc(Cl)c3F)CC12 (mixture of isomers) [ID No. 29, (1S,3S)-7-[3-Chloro-2-fluoro-6-(tetrazol-1-yl)phenyl]-1-methoxy-5-oxo-N-(6-quinolyl)-2,3,8,8a-tetrahydro-1H-indolizine-3-carboxamide]
- IC50 (Factor XIa): 180 nM
- IC50 (human plasma kallikrein): 611 nM

SMILES: O=C(Nc1ccc(-c2nc(=O)o[nH]2)cc1)[C@@H]1CCC2CC(c3c(OCC(F)(F)F)ccc(Cl)c3F)=CC(=O)N21 (mixture of isomers) [ID No. 40, (3S)-7-(3-Chloro-2-fluoro-6-(2,2,2-trifluoroethoxy)phenyl)-5-oxo-N-(4-(5-oxo-2,5-dihydro-1,2,4-oxadiazol-3-yl)phenyl)-1,2,3,5,8,8a-hexahydroindolizine-3-carboxamide]
- IC50 (Factor XIa): 30.8 nM

SMILES: Cn1oc(=O)nc1-c1ccc(NC(=O)[C@@H]2CCC3CC(c4c(-n5cnnn5)ccc(Cl)c4F)=CC(=O)N32)cc1 (mixture of isomers) [ID No. 67, (3S)-7-[3-Chloro-2-fluoro-6-(tetrazol-1-yl)phenyl]-N-[4-(2-methyl-5-oxo-1,2,4-oxadiazol-3-yl)phenyl]-5-oxo-2,3,8,8a-tetrahydro-1H-indolizine-3-carboxamide]
- IC50 (Factor XIa): 183 nM

SMILES: Cn1ccnc1-c1ccc(NC(=O)[C@@H]2CCC3CC(c4c(-n5cnnn5)ccc(Cl)c4F)=CC(=O)N32)cc1 (mixture of isomers) [ID No. 78, (3S)-7-[3-Chloro-2-fluoro-6-(tetrazol-1-yl)phenyl]-N-[4-(1-methylimidazol-2-yl)phenyl]-5-oxo-2,3,8,8a-tetrahydro-1H-indolizine-3-carboxamide]
- IC50 (Factor XIa): 58.4 nM

SMILES: C[C@@H]1C[C@@H](C(=O)Nc2ccc3nccnc3c2)N2C(=O)C=C(c3c(-n4cnnn4)ccc(Cl)c3F)C[C@H]12 (single isomer, unassigned) [ID No. 81, (1R*,3S,8aR*)-7-[3-Chloro-2-fluoro-6-(tetrazol-1-yl)phenyl]-1-methyl-5-oxo-N-quinoxalin-6-yl-2,3,8,8a-tetrahydro-1H-indolizine-3-carboxamide]
- IC50 (Factor XIa): 639 nM

SMILES: COCCNC(=O)c1ccc(NC(=O)[C@@H]2CCC3CC(c4c(-n5cnnn5)ccc(Cl)c4F)=CC(=O)N32)cc1F (single isomer, unassigned) [ID No. 94, (3S,8aS*)-7-(3-chloro-2-fluoro-6-(1H-tetrazol-1-yl)phenyl)-N-(3-fluoro-4-((2-methoxyethyl)carbamoyl)phenyl)-5-oxo-1,2,3,5,8,8a-hexahydroindolizine-3-carboxamide]
- IC50 (Factor XIa): > 50 nM

SMILES: O=C(O)C1CCc2ccc(NC(=O)[C@@H]3CC[C@@H]4CC(c5c(-n6cc(C(F)(F)F)nn6)ccc(Cl)c5F)=CC(=O)N43)cc21 (stereo partly drawn) [compound 104]
- IC50 (Factor XIa): > 50 nM
